In US11643413B2, “9-(2-oxacycloalkyl)-9H-purine-2,6-diamine derivatives and their use for the treatment of skin disorders” (UNIVERZITA PALACKEHO V OLOMOUCI, priority 2017, dated 2023):
Like-named read-outs stand apart in the source and are kept apart here.

Key:
B10A.4 [1] = system: B10A.4
From the text: (§1) One of the parameters used, as the basis for cytotoxicity assays, is the metabolic activity of viable cells. For example, a microtiter assay, which uses the Calcein AM, is now widely used to quantitate cell proliferation and cytotoxicity. […] Because only metabolically active cells cleave Calcein AM, these assays detect viable cells exclusively. The quantity of reduced Calcein AM corresponds to the number of vital cells in the culture.
(§2) Mouse fibroblasts NIH3T3; mouse immortalized bone marrow macrophages B2.4 and B10A.4, and BJ (human foreskin fibroblasts) were used for routine screening of compounds. The cells were maintained in Nunc/Corning 80 cm^2 plastic tissue culture flasks and cultured in cell culture medium (DMEM with 5 g/l glucose, 2 mM glutamine, 100 U/ml penicillin, 100 μg/ml streptomycin, 10% fetal calf serum and sodium bicarbonate).
(§3) The cell suspensions that were prepared and diluted according to the particular cell type and the expected target cell density (2.500-30.000 cells per well based on cell growth characteristics) were added by pipette (80 μl) into 96/well microtiter plates. Inoculates were allowed a pre-incubation period of 24 hours at 37° C. and 5% CO2 for stabilisation. Four-fold dilutions of the intended test concentration were added at time zero in 20 μl aliquots to the microtiter plate wells. Usually, the compound tested was evaluated at six 4-fold dilutions. […] All compound concentrations were examined in duplicates. Incubations of cells with the tested compounds lasted for 72 hours at 37° C., in 5% CO2 atmosphere and 100% humidity. At the end of the incubation period, the cells were assayed by using Calcein AM. Ten microliters of the stock solution were pipetted into each well and incubated for 1 hour. Fluorescence (FD) was measured with the Labsystem FIA Reader Fluoroscan Ascent (UK).

[2] = system: BJ (human foreskin fibroblasts)
From the text: as §1, §2, §3

NIH-3T3 [3] = system: NIH-3T3
From the text: as §1, §2, §3

B10A.4 [4] = system: B10A.4; remark: listed apart in the source
From the text: as §1, §2, §3

B10A.4 [5] = experiment: Calcein AM cytotoxicity, B10A.4 (second column); conditions: read-out: Cytotoxicity IC50, B10A.4, 72 hours incubation, highest concentration […]
From the text: as §1, §2, §3

NIH-3T3 [6] = experiment: Calcein AM cytotoxicity, NIH-3T3; conditions: read-out: Cytotoxicity IC50, NIH-3T3; 72 hours incubation, Calcein AM; highest concentration […]
From the text: as §1, §2, §3

NIH3T3 fibroblasts = experiment: Peroxidation of membrane lipids, MDA by TBA method; assay type: cell-based, mouse; conditions: FW = fresh weight
Procedure: A typical symptom associated with aging is the direct consequence of increased concentrations of reactive oxygen species and lipid peroxidation. […] MDA levels were measured using thiobarbituric acid (TBA method). […] The crude extract was centrifuged at 10,000×g for 5 minutes and 100 μl aliquots of the supernatant were mixed with 100 μl of 0.5% (w/v) TBA containing 0.1% (w/v) trichloroacetic acid. The resulting solution was then incubated for 30 min at 95° C. The samples were rapidly cooled on ice and centrifuged for 5 minutes at 1000×g. […] The newly prepared derivatives of the general formula thus have a protective function against the negative effects of reactive oxygen species that accumulate strongly in the tissues.

B10A.4 [7] = experiment: Calcein AM cytotoxicity, B10A.4 (first column); conditions: read-out: Cytotoxicity IC50, B10A.4; 72 hours incubation, Calcein AM; highest concentration […]
From the text: as §1, §2, §3

[8] = system: BJ (human foreskin fibroblasts); experiment: Calcein AM cytotoxicity, BJ; conditions: read-out: Cytotoxicity IC50, BJ; 72 hours incubation, Calcein AM; highest concentration […]
From the text: as §1, §2, §3

[9] = Radical scavenging activity determined by ORAC; conditions: relative to trolox; Mean ± SD (n = 3)
Procedure: The ability of compounds to scavenge free radicals in vitro was determined by Oxygen Radical Absorbance Capacity (ORAC) method. In brief, fluorescein (100 μl, […]) and 25 μl of compound solution were added into each working well in a 96-well microplate preincubated at 37° C. Thereafter, 25 μL of 250 mM AAPH was quickly added, microplate was shaken for 5 s and the fluorescence (Ex. 485 nm, Em. 510 nm) was read every 3 min over 90 min by using microplate reader Infinite 200 (TECAN, Switzerland). The net area under the curve was used to express antioxidant activity relative to trolox which was used as a standard.

[10] = Calcein AM cytotoxicity, NIH-3T3; conditions: mouse, NIH-3T3 fibroblasts
From the text: as §1, §2, §3

[11] = Calcein AM cytotoxicity, B10A.4 (first column); conditions: mouse, B10A.4 immortalized bone marrow macrophages
From the text: as §1, §2, §3

[12] = Calcein AM cytotoxicity, BJ; conditions: human, BJ foreskin fibroblasts
From the text: as §1, §2, §3

Row | SMILES | IC50 (B10A.4 [5]) [µM] | IC50 (NIH-3T3 [6]) [µM] | MDA (NIH3T3 fibroblasts) [nmol/g FW] | IC50 (B10A.4 [7]) [µM] | IC50 [8] [µM] | ORAC (compound/trolox) [9] | IC50 at 72 h [10] [µM] | IC50 at 72 h [11] [µM] | IC50 at 72 h [12] [µM] | IC50 (B10A.4 [1]) [µM] | IC50 [2] [µM] | IC50 (NIH-3T3 [3]) [µM] | IC50 (B10A.4 [4]) [µM] | also measured
1 | Nc1ncnc2nc[nH]c12 [Adenine, reference compound] | – | – | – | – | – | – | – | – | – | – | – | – | – | IC50 (B10A.4 [1]; mouse, 72 h): > 167 µM; IC50 ([2]; human, 72 h): > 167 µM; IC50 (NIH-3T3 [3]; mouse, 72 h): > 167 µM; IC50 (B10A.4 [4]; mouse, 72 h): > 167 µM
2 | CC(C)=CCNc1nc(N(C)C)nc2c1ncn2C1CCO1 (centres unmarked) [Compound 13] | > 167 | > 167 | 13.1 | > 167 | > 167 | – | – | – | – | – | – | – | – | –
3 | CCN(CC)c1nc(NCC=C(C)C)c2ncn(C3CCO3)c2n1 (centres unmarked) [Compound 14] | > 167 | > 167 | 11.4 | > 167 | > 167 | – | – | – | – | – | – | – | – | –
4 | CN(C)c1nc(NCc2ccco2)c2ncn(C3CCCO3)c2n1 (centres unmarked) [Compound 30, 2-(Dimethylamino)-6-furfurylamino-9-(tetrahydrofuran-2-yl)-9H-purine] | – | – | 12.6 | – | – | 0.292 ± 0.006 | > 167 | > 167 | > 167 | – | – | – | – | –
5 | Cc1ccc(CNc2nc(N(C)C)nc3c2ncn3C2CCCO2)o1 (centres unmarked) [Compound 46, 2-(Dimethylamino)-6-[(5-methylfurfuryl)amino]-9-(tetrahydrofuran-2-yl)-9H-purine] | – | – | 11.2 | – | – | 0.14 ± 0.004 | > 167 | > 167 | > 167 | – | – | – | – | –
6 | CNc1nc(NCc2occc2OC)c2ncn(C3CCCO3)c2n1 (centres unmarked) [Compound 49] | – | – | 12.3 | – | – | – | – | – | – | > 167 | > 167 | > 167 | > 167 | –
7 | CN(C)CCNc1nc(NCc2ccco2)c2ncn(C3CCCCO3)c2n1 (centres unmarked) [Compound 116, 2-{[2-(Dimethylamino)ethyl]amino}-6-furfurylamino-9-(tetrahydro-2H-pyran-2-yl)-9H-purine] | – | – | 9.2 | – | – | 2.475 ± 0.086 | > 167 | > 167 | > 167 | – | – | – | – | –
8 | c1coc(CNc2ncnc3nc[nH]c23)c1 [Kinetin, N^6-furfuryladenine, reference compound] | 164 | 133 | 14.2 | > 167 | 148 | – | – | – | – | – | – | – | – | –
9 | CC(C)=CCNc1ncnc2nc[nH]c12 [isopentenyladenine, reference compound] | – | – | – | – | – | – | – | – | – | 147 | 134 | 124 | > 167 | –
10 | Oc1cccc(CNc2ncnc3nc[nH]c23)c1 [meta-topolin, reference compound] | – | – | – | – | – | – | – | – | – | ≥ 178 | 166 | ≥ 167 | > 167 | –
